Experimental data: PubChem BioAssay (NCI)
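Each compound was tested at five concentrations against cells in 96-well plates for 48 hours. At the GI50, growth is halved. The concentration for full growth arrest is given as TGI.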

Tests used:
Assay in all cases: NCI-60 cell line screen, 48 h
SW-620 colon = tested on: SW-620 colon
OVCAR-5 ovarian = tested on: OVCAR-5 ovarian
SNB-75 CNS = tested on: SNB-75 CNS
CAKI-1 renal = tested on: CAKI-1 renal
IGROV1 ovarian = tested on: IGROV1 ovarian
SNB-19 CNS = tested on: SNB-19 CNS
MALME-3M melanoma = tested on: MALME-3M melanoma
MDA-MB-435 = tested on: MDA-MB-435
HCT-116 colon = tested on: HCT-116 colon
CCRF-CEM leukemia = tested on: CCRF-CEM leukemia
HCT-15 colon = tested on: HCT-15 colon
PC-3 prostate = tested on: PC-3 prostate
A498 renal = tested on: A498 renal
UACC-257 melanoma = tested on: UACC-257 melanoma
EKVX NSCLC = tested on: EKVX NSCLC
NCI-H522 lung = tested on: NCI-H522 lung
786-0 renal = tested on: 786-0 renal
HT29 colon = tested on: HT29 colon
OVCAR-4 ovarian = tested on: OVCAR-4 ovarian
MOLT-4 leukemia = tested on: MOLT-4 leukemia
DU-145 prostate = tested on: DU-145 prostate
SR leukemia = tested on: SR leukemia
KM12 colon = tested on: KM12 colon
SF-268 CNS = tested on: SF-268 CNS
ACHN renal = tested on: ACHN renal
K-562 leukemia = tested on: K-562 leukemia
UO-31 renal = tested on: UO-31 renal
HOP-62 NSCLC = tested on: HOP-62 NSCLC
U251 CNS = tested on: U251 CNS
HOP-92 NSCLC = tested on: HOP-92 NSCLC
RXF 393 renal = tested on: RXF 393 renal
SK-MEL-5 melanoma = tested on: SK-MEL-5 melanoma
A549 NSCLC = tested on: A549 NSCLC
COLO 205 colon = tested on: COLO 205 colon
OVCAR-8 ovarian = tested on: OVCAR-8 ovarian
NCI-H226 lung = tested on: NCI-H226 lung
HS 578T breast = tested on: HS 578T breast
TK-10 renal = tested on: TK-10 renal
M14 melanoma = tested on: M14 melanoma
MCF7 breast = tested on: MCF7 breast
RPMI-8226 leukemia = tested on: RPMI-8226 leukemia
SN12C renal = tested on: SN12C renal
SF-295 CNS = tested on: SF-295 CNS
OVCAR-3 ovarian = tested on: OVCAR-3 ovarian
SK-MEL-28 melanoma = tested on: SK-MEL-28 melanoma
SF-539 CNS = tested on: SF-539 CNS
T-47D breast = tested on: T-47D breast
NCI-H460 lung = tested on: NCI-H460 lung
UACC-62 melanoma = tested on: UACC-62 melanoma
SK-MEL-2 melanoma = tested on: SK-MEL-2 melanoma
SK-OV-3 ovarian = tested on: SK-OV-3 ovarian
MDA-MB-231 breast = tested on: MDA-MB-231 breast
BT-549 breast = tested on: BT-549 breast

## CCN(CC)Cc1cc(Nc2c3ccccc3nc3cc(Cl)ccc23)ccc1O
SW-620 colon
  GI50: 1180 nM
  TGI: 3630 nM
OVCAR-5 ovarian
  GI50: 2420 nM
  TGI: 6660 nM
SNB-75 CNS
  GI50: 1600 nM
  TGI: 2970 nM
CAKI-1 renal
  GI50: 1870 nM
  TGI: 4730 nM
IGROV1 ovarian
  GI50: 1650 nM
  TGI: 3550 nM
SNB-19 CNS
  GI50: 2040 nM
  TGI: 5270 nM
MALME-3M melanoma
  GI50: 1940 nM
  TGI: 3580 nM
MDA-MB-435
  GI50: 1650 nM
  TGI: 3340 nM
HCT-116 colon
  GI50: 967 nM
  TGI: 2670 nM
CCRF-CEM leukemia
  GI50: 2590 nM
  TGI: > 100000 nM
HCT-15 colon
  GI50: 3490 nM
  TGI: 17000 nM
PC-3 prostate
  GI50: 1590 nM
  TGI: 3260 nM
A498 renal
  GI50: 1730 nM
  TGI: 3290 nM
UACC-257 melanoma
  GI50: 1900 nM
  TGI: 3410 nM
EKVX NSCLC
  GI50: 2260 nM
  TGI: 5990 nM
NCI-H522 lung
  GI50: 1120 nM
  TGI: 2560 nM
786-0 renal
  GI50: 1210 nM
  TGI: 2460 nM
HT29 colon
  GI50: 487 nM
  TGI: 1750 nM
OVCAR-4 ovarian
  GI50: 1180 nM
  TGI: 2430 nM
MOLT-4 leukemia
  GI50: 2010 nM
  TGI: 53500 nM
DU-145 prostate
  GI50: 2630 nM
  TGI: 9690 nM
SR leukemia
  GI50: 3080 nM
  TGI: > 100000 nM
KM12 colon
  GI50: 1590 nM
  TGI: 3770 nM
SF-268 CNS
  GI50: 1630 nM
  TGI: 3130 nM
ACHN renal
  GI50: 1470 nM
  TGI: 2970 nM
K-562 leukemia
  GI50: 1690 nM
  TGI: 39000 nM
UO-31 renal
  GI50: 1340 nM
  TGI: 2640 nM
HOP-62 NSCLC
  GI50: 1730 nM
  TGI: 3160 nM
U251 CNS
  GI50: 1390 nM
  TGI: 2890 nM
HOP-92 NSCLC
  GI50: 1410 nM
  TGI: 3130 nM
RXF 393 renal
  GI50: 1280 nM
  TGI: 2580 nM
SK-MEL-5 melanoma
  GI50: 1750 nM
  TGI: 3160 nM
A549 NSCLC
  GI50: 1360 nM
  TGI: 4260 nM
COLO 205 colon
  GI50: 1050 nM
  TGI: 2300 nM
OVCAR-8 ovarian
  GI50: 1180 nM
  TGI: 3830 nM
NCI-H226 lung
  GI50: 1660 nM
  TGI: 3230 nM
HS 578T breast
  GI50: 2260 nM
  TGI: 6240 nM
TK-10 renal
  GI50: 1640 nM
  TGI: 3230 nM
M14 melanoma
  GI50: 1760 nM
  TGI: 3180 nM
MCF7 breast
  GI50: 960 nM
  TGI: 2460 nM
RPMI-8226 leukemia
  GI50: 2320 nM
  TGI: 6270 nM
SN12C renal
  GI50: 1050 nM
  TGI: 2670 nM
SF-295 CNS
  GI50: 1900 nM
  TGI: 4860 nM
OVCAR-3 ovarian
  GI50: 1740 nM
  TGI: 3280 nM
SK-MEL-28 melanoma
  GI50: 1790 nM
  TGI: 3200 nM
SF-539 CNS
  GI50: 2190 nM
  TGI: 4580 nM
T-47D breast
  GI50: 1970 nM
  TGI: 4000 nM
NCI-H460 lung
  GI50: 1620 nM
  TGI: 4800 nM
UACC-62 melanoma
  GI50: 2100 nM
  TGI: 4000 nM
SK-MEL-2 melanoma
  GI50: 1750 nM
  TGI: 3360 nM
SK-OV-3 ovarian
  GI50: 2010 nM
  TGI: 3860 nM
MDA-MB-231 breast
  GI50: 1730 nM
  TGI: 3590 nM
BT-549 breast
  GI50: 1950 nM
  TGI: 3480 nM
